From PubChem BioAssay (NCI)
Where “and” joins values, the source holds several entries; their conditions need not be identical. Equal entries are not always repeated.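 Growth conditions: 96-well plates. Treatment: test compound, 48 hours, 5 concentrations. Analysis: linear interpolation between bracketing concentrations; unreached endpoints set to highest concentration. Abbreviation: GI50, concentration required for 50% inhibition of growth. TGI marks complete inhibition of growth.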

How the values were obtained:
Test in all cases: growth of human tumour cells (NCI), 48 h
IGROV1 ovarian = test system: IGROV1 ovarian
SNB-75 CNS = test system: SNB-75 CNS
SK-MEL-2 melanoma = test system: SK-MEL-2 melanoma
MDA-MB-435 = test system: MDA-MB-435
RXF 393 renal = test system: RXF 393 renal
TK-10 renal = test system: TK-10 renal
DU-145 prostate = test system: DU-145 prostate
EKVX NSCLC = test system: EKVX NSCLC
OVCAR-5 ovarian = test system: OVCAR-5 ovarian
RPMI-8226 leukemia = test system: RPMI-8226 leukemia

| SMILES | TGI (IGROV1 ovarian) | GI50 (SNB-75 CNS) | TGI (SNB-75 CNS) | TGI (SK-MEL-2 melanoma) | TGI (MDA-MB-435) | TGI (RXF 393 renal) | TGI (TK-10 renal) | TGI (DU-145 prostate) | TGI (EKVX NSCLC) | TGI (OVCAR-5 ovarian) | GI50 (RPMI-8226 leukemia) | TGI (RPMI-8226 leukemia) | GI50 (IGROV1 ovarian) | GI50 (SK-MEL-2 melanoma) | GI50 (MDA-MB-435) | GI50 (RXF 393 renal) | GI50 (TK-10 renal) | GI50 (DU-145 prostate) | GI50 (EKVX NSCLC) | GI50 (OVCAR-5 ovarian) |
| --- | --- | --- | --- | --- | --- | --- | --- | --- | --- | --- | --- | --- | --- | --- | --- | --- | --- | --- | --- | --- |
| N#Cc1c2c(c(-c3cccs3)n(C3OC(CO)C(O)C(O)C3O)c1=S)CCc1ccccc1-2 (configuration not stated) | > 100 µM | 3.49 µM and 1.55 µM | > 29.3 µM and 12.7 µM | > 100 µM | > 100 µM | > 100 µM | > 100 µM | > 100 µM | > 100 µM | > 100 µM | 9.27 µM and > 23.7 µM | > 100 µM |  |  |  |  |  |  |  |  |
| CCCn1c(N)c(C(=O)CNc2ccc(I)cc2)c(=O)[nH]c1=O | > 100 µM | 2.12 µM | > 40.1 µM | > 100 µM | > 100 µM | > 100 µM | > 100 µM | > 100 µM | > 100 µM | > 100 µM | 0.51 µM | > 100 µM | 18 µM | > 100 µM | 6.01 µM | 21.5 µM | 16.7 µM | 7.12 µM | > 64.3 µM | > 100 µM |
| Cc1cc(O)cc2c1c(=O)c1ccccc1n2C | > 100 µM |  | > 100 µM | > 100 µM | > 100 µM | > 100 µM | > 100 µM | > 100 µM | > 100 µM | > 100 µM |  | > 100 µM |  |  |  |  |  |  |  |  |
| COc1cc([C@@H]2c3cc4c(cc3C[C@H]3COC(=O)[C@@H]32)OCO4)cc2c1OCO2 | 0.048 µM |  | > 100 µM | < 0.01 µM | < 0.01 µM | > 100 µM | 3.48 µM | > 100 µM | > 100 µM | > 100 µM |  | > 100 µM |  |  |  |  |  |  |  |  |
| O=C(Nc1cc(-c2cccnc2)nc(NCCCN2CCOCC2)n1)c1cc(Br)cc(C(F)(F)F)c1 | 19.5 µM | 1.52 µM | 3.59 µM | 17 µM | 3.15 µM | 3.61 µM | 18.1 µM | 19.1 µM | 14.4 µM | 23.5 µM | 3.15 µM | 9.69 µM | 4.67 µM | 4.52 µM | 1.66 µM | 1.8 µM | 5.07 µM | 6.7 µM | 2.72 µM | 6.33 µM |
| CC[C@H](NC(=O)[C@H](CS(=O)(=O)CC1CC1)N[C@@H](c1ccc(F)cc1)C(F)(F)F)C(=O)C(=O)NC1CC1 | > 100 µM | > 100 µM | > 100 µM | > 100 µM | > 100 µM | > 100 µM | > 100 µM | > 100 µM | > 100 µM | > 100 µM | > 100 µM | > 100 µM | > 100 µM | > 100 µM | > 100 µM | > 100 µM | > 100 µM | > 100 µM | 90.3 µM | > 100 µM |
| COc1c(N2CCN(Cn3c(O)c(N=NC(=O)c4ccncc4)c4cc(F)ccc43)C(C)C2)c(F)cc2c(=O)c(C(=O)O)cn(C3CC3)c12 (configuration not stated) | > 50 µM | > 50 µM | > 50 µM | > 50 µM | > 50 µM | 20.6 µM | 37.2 µM | 32.8 µM | > 50 µM | > 50 µM | 15.1 µM | 47.2 µM | 42.1 µM | > 50 µM | > 50 µM | 8.44 µM | 12.5 µM | 10 µM | 35.2 µM | 33.3 µM |
| C=CCCC(=O)N1C=CC(=O)[C@H](O)[C@@H]1/C=C/c1ccccc1 | > 32.5 µM | 27.4 µM | > 32.5 µM | > 32.5 µM | > 32.5 µM | > 32.5 µM | > 32.5 µM | > 32.5 µM | > 32.5 µM | > 32.5 µM | 15.6 µM | > 32.5 µM | 9.4 µM | > 32.5 µM | 10.7 µM | 29.9 µM | 21.5 µM | 10.4 µM | 7.63 µM | > 32.5 µM |
| Cc1cc(S(=O)(=O)Nc2nc3cc(Cl)ccc3o2)c(SCc2ccccc2)cc1Cl | 44.3 µM | 26.1 µM | 62.2 µM | 43.1 µM | 42 µM | 58.5 µM | 55.1 µM | 45.9 µM | 37 µM | 43 µM | 20.3 µM | 66.2 µM | 19.8 µM | 20.5 µM | 21.5 µM | 30.9 µM | 25.8 µM | 22.4 µM | 17.8 µM | 22.7 µM |
| Cn1ncc(-c2ccc3c(=O)[nH]nc(CN)c3c2)c1-c1c(F)cc2ccccc2c1C#N | 19.7 µM | 4.44 µM | 19.5 µM | 16.3 µM | 14.5 µM | 16.6 µM | 24.1 µM | 21.1 µM | 25.1 µM | 29.4 µM | 4.78 µM | 27.4 µM | 4.63 µM | 4.63 µM | 3.72 µM | 4.6 µM | 10.7 µM | 8.59 µM | 11.9 µM | 11.3 µM |
| CC1(C)[C@@H](OC(N)=O)C=C[C@]2(C=O)[C@H]3CC[C@]4(C)[C@@H](c5ccc(=O)oc5)[C@@H](Cl)C[C@]4(O)C3=CC[C@@H]12 | 0.0244 µM | 0.00407 µM | 0.00932 µM | 0.0173 µM | 0.0141 µM | 0.0157 µM | 0.0157 µM | 0.00785 µM | 0.0102 µM | 0.0135 µM | 0.00719 µM | 0.023 µM | 0.00761 µM | 0.00679 µM | 0.006 µM | 0.00561 µM | 0.00527 µM | 0.0041 µM | 0.00415 µM | 0.00581 µM |
| OC(COc1cccc2ccccc12)CN1CCN(c2ccccc2Cl)CC1 (configuration not stated) | 25.5 µM | 11.2 µM | 24.7 µM | 29.5 µM | 30.4 µM | 30.8 µM | 17.1 µM | 28.5 µM | 31.7 µM | 24.1 µM | 13.2 µM | 38.3 µM | 10 µM | 15.4 µM | 14.5 µM | 16.5 µM | 5.58 µM | 14.6 µM | 12.9 µM | 11.5 µM |
| c1ccc2nc(OCCN3CC3)ccc2c1 | 10.8 µM | 16.9 µM | 35.2 µM | 31.6 µM | 17.9 µM | 32.5 µM | 23.1 µM | 28 µM | 33.4 µM | 31.5 µM | 3.94 µM | 26.7 µM | 2.24 µM | 13.5 µM | 3.31 µM | 14.6 µM | 4.89 µM | 14.8 µM | 12 µM | 17.1 µM |
